Earlier results in patent US20100056426A1, “USE OF IRON CHELATOR FOR THE TREATMENT OF MYOCARDIAL INFARCTION” (NOVARTIS AG, priority 2007, published 2010).
Like-named read-outs stand apart in the source and are kept apart here.

Experiments:
[1] = model systems; Hershko et al., Blood 2001
[2] = humans; Nisbet Brown et al., Lancet 2003

SMILES: O=C(O)c1ccc(-n2nc(-c3ccccc3O)nc2-c2ccccc2O)cc1 [4-[3,5-bis-(2-hydroxyphenyl)-[1,2,4]-triazol-1-yl]benzoic acid]
- selective removal of iron [1]: effective in the selective removal of iron
- selective removal of iron [2]: effective in the selective removal of iron
